Assay results: ChEMBL document CHEMBL4680211, “Synthesis and structure-activity relationship study of water-soluble carbazole sulfonamide derivatives as new anticancer agents” (Eur J Med Chem, 2020)

Experiments:
[1] = Aqueous solubility of compound in water at pH 7.4 incubated at 20 degC by HPLC-UV analysis; type: physicochemical
[2] = test system: HepG2; test: Antiproliferative activity against human HepG2 cells measured after 48 hrs by SRB assay; type: functional, cell-based
[3] = test system: Bel-7402; test: Antiproliferative activity against human Bel-7402 cells measured after 48 hrs by SRB assay; type: functional, cell-based
[4] = test system: MCF7; test: Antiproliferative activity against human MCF7 cells measured after 48 hrs by SRB assay; type: functional, cell-based
[5] = test system: HepG2; test: Antitumor activity against human HepG2 cells xenografted in BALB/c nude mouse assessed as reduction in tumor volume administered for 29 days by caliper method; type: functional, cell-based; details: time 29.0 day
[6] = test system: HepG2; test: Antitumor activity against human HepG2 cells xenografted in iv dosed BALB/c nude mouse assessed as tumor growth inhibition administered every other day for 14 to 29 days; type: functional, organism-based; details: time 14-29 day
[7] = test system: MDA-MB-231; test: Antitumor activity against human MDA-MB-231 cells xenografted in BALB/c nude mouse assessed as reduction in tumor burden at 60 mg/kg, ip qod for 14 to 29 days relative to control; type: functional; design: scale not given: the % may be the effect or the level left; details: time 14-29 day
[8] = Toxicity in human MDA-MB-231 cells xenografted BALB/c nude mouse assessed as effect on body weight at 60 mg/kg, ip qod for 14 to 29 days measured every two days during compound dosing; type: organism-based; details: in vivo, time 14-29 day
[9] = Acute toxicity in Kunming mouse assessed as survival at 100 mg/kg, iv measured for 7 days relative to control; type: organism-based; details: in vivo, time 7 day
[10] = Acute toxicity in Kunming mouse assessed as survival at 50 mg/kg, iv measured for 7 days relative to control; type: organism-based; details: in vivo, time 7 day
[11] = Acute toxicity in Kunming mouse assessed as survival at 25 mg/kg, iv measured for 7 days relative to control; type: organism-based; details: in vivo, time 7 day
[12] = Acute toxicity in Kunming mouse assessed as survival at 200 mg/kg, iv measured for 7 days relative to control; type: organism-based; details: in vivo, time 7 day
[13] = Acute toxicity in iv dosed Kunming mouse measured for 7 days; type: organism-based; details: in vivo, time 7 day
[14] = test system: HepG2; test: Antitumor activity against human HepG2 cells xenografted in BALB/c nude mouse assessed as tumor volume at 10 mg/kg, iv qod for 14 to 29 days measured on day 1 (reference value: 154.04 +/- 3120); type: functional; details: time 14-29 day
[15] = test system: HepG2; test: Antitumor activity against human HepG2 cells xenografted in BALB/c nude mouse assessed as tumor volume at 10 mg/kg, iv qod for 14 to 29 days measured on day 29 (reference value: 2,838.93 +/- 737.40); type: functional; details: time 14-29 day
[16] = test system: HepG2; test: Antitumor activity against human HepG2 cells xenografted in BALB/c nude mouse assessed as tumor growth inhibition at 10 mg/kg, iv qod for 14 to 29 days relative to control; type: functional; details: time 14-29 day, read-out: TGI
[17] = Toxicity in human HepG2 cells xenografted BALB/c nude mouse assessed as change in tumor weight at 10 mg/kg, iv qod for 14 to 29 days (reference value: 4.52 g); type: organism-based; details: in vivo, time 14-29 day
[18] = test system: HepG2; test: Antitumor activity against human HepG2 cells xenografted in BALB/c nude mouse assessed as tumor growth inhibition at 50 mg/kg, iv qod for 14 to 29 days relative to control; type: functional; details: time 14-29 day, read-out: TGI
[19] = Acute toxicity in Kunming mouse assessed as survival at 75 mg/kg, iv measured for 7 days relative to control; type: organism-based; details: in vivo, time 7 day

solubility [1]	IC50 ([2]; Homo sapiens, HepG2, 48 h)	IC50 ([3]; Homo sapiens, Bel-7402, 48 h)	IC50 ([4]; Homo sapiens, MCF7, 48 h)	SMILES	other results
18.6 mg/mL				COc1ccc(N(C(=O)CCN2CCCCC2)S(=O)(=O)c2ccc3c(c2)c2ccccc2n3C)c(OC)n1.Cl	
0.15 mg/mL				COc1ccc(N(CCO)S(=O)(=O)c2ccc3c(c2)c2ccccc2n3C)c(OC)n1.Cl	
				COc1ccc(N(CCOP(=O)(O)O)S(=O)(=O)c2ccc3c(c2)c2ccccc2n3C)c(OC)n1 [listing 1 of 2 here]	IC50 ([2]; hepg2): 740 nM; IC50 ([3]; bel-7402): 1.15 µM; IC50 ([4]; mcf7): 1.01 µM
	1390 nM	4.64 µM	4.53 µM	COc1ccc(N(CCCn2ccnc2)S(=O)(=O)c2ccc3c(c2)c2ccccc2n3C)c(OC)n1	
0.44 mg/mL				COc1ccc(N(CCN2CCOCC2)S(=O)(=O)c2ccc3c(c2)c2ccccc2n3C)c(OC)n1.Cl	
	2840 nM	4.23 µM	14.6 µM	COc1ccc(N(CCN2CCC3(CCN(C)CC3)C2)S(=O)(=O)c2ccc3c(c2)c2ccccc2n3C)c(OC)n1	
				COc1ccc(N(CCOP(=O)(O)O)S(=O)(=O)c2ccc3c(c2)c2ccccc2n3C)c(OC)n1 [listing 2 of 2 here]	Activity [5]: Dose-dependent effect
0.47 mg/mL				COc1ccc(N(CCOC(N)=O)S(=O)(=O)c2ccc3c(c2)c2ccccc2n3C)c(OC)n1.Cl	
0.27 mg/mL				COc1ccc(N(CCN2CCSCC2)S(=O)(=O)c2ccc3c(c2)c2ccccc2n3C)c(OC)n1.Cl	
> 30 mg/mL				COc1ccc(N(CCCN2CCC(N3CCCC3)CC2)S(=O)(=O)c2ccc3c(c2)c2ccccc2n3C)c(OC)n1.Cl	
> 30 mg/mL				COc1ccc(N(CCN2CCC3(CCN(C)CC3)C2)S(=O)(=O)c2ccc3c(c2)c2ccccc2n3C)c(OC)n1.Cl	
0.6 mg/mL				COc1ccc(N(CCN2CCCC2)S(=O)(=O)c2ccc3c(c2)c2ccccc2n3C)c(OC)n1.Cl	
0.24 mg/mL				COc1ccc(N(CCN)S(=O)(=O)c2ccc3c(c2)c2ccccc2n3C)c(OC)n1.Cl	
17.6 mg/mL				COc1ccc(N(C(=O)CCN2CCN(C)CC2)S(=O)(=O)c2ccc3c(c2)c2ccccc2n3C)c(OC)n1.Cl	
	4300 nM	4.92 µM	5.98 µM	COc1ccc(N(CCOC(=O)CN2CCN(C)CC2)S(=O)(=O)c2ccc3c(c2)c2ccccc2n3C)c(OC)n1	
0.02 mg/mL				COc1ccc(N(CC(N)=O)S(=O)(=O)c2ccc3c(c2)c2ccccc2n3C)c(OC)n1.Cl	
	1360 nM	4.1 µM	4.61 µM	COc1ccc(N(CCN2CCSCC2)S(=O)(=O)c2ccc3c(c2)c2ccccc2n3C)c(OC)n1	
18.4 mg/mL				COc1ccc(N(CCCn2ccnc2)S(=O)(=O)c2ccc3c(c2)c2ccccc2n3C)c(OC)n1.Cl	
	4040 nM	4.13 µM	1.43 µM	COc1ccc(N(CCO)S(=O)(=O)c2ccc3c(c2)c2ccccc2n3C)c(OC)n1	
> 30 mg/mL				COc1ccc(N(CCOC(=O)CN2CCN(C)CC2)S(=O)(=O)c2ccc3c(c2)c2ccccc2n3C)c(OC)n1.Cl	
	1250 nM	2.59 µM	4.6 µM	COc1ccc(N(CCn2ccnc2)S(=O)(=O)c2ccc3c(c2)c2ccccc2n3C)c(OC)n1	
	2050 nM	4.99 µM	5.82 µM	COc1ccc(N(CCN2CCCCC2)S(=O)(=O)c2ccc3c(c2)c2ccccc2n3C)c(OC)n1	

solubility [1]	IC50 ([2]; Homo sapiens, HepG2, 48 h)	IC50 ([3]; Homo sapiens, Bel-7402, 48 h)	IC50 ([4]; Homo sapiens, MCF7, 48 h)	SMILES	other results
	3590 nM	6.21 µM	21.3 µM	COc1ccc(N(CCCN2CCC3(CCN(C)CC3)C2)S(=O)(=O)c2ccc3c(c2)c2ccccc2n3C)c(OC)n1	
				COc1ccc(N(CCN2CCN(C)CC2)S(=O)(=O)c2ccc3c(c2)c2ccccc2n3C)c(OC)n1	TGI [6]: Dose-dependent effect
	2730 nM	10.8 µM	7.15 µM	COc1ccc(N(CCCN(C)C)S(=O)(=O)c2ccc3c(c2)c2ccccc2n3C)c(OC)n1	
20.5 mg/mL				COc1ccc(N(CCCN(C)C)S(=O)(=O)c2ccc3c(c2)c2ccccc2n3C)c(OC)n1.Cl	
> 30 mg/mL				COc1ccc(N(CCNC(=O)CN)S(=O)(=O)c2ccc3c(c2)c2ccccc2n3C)c(OC)n1.Cl.Cl	
> 30 mg/mL				COc1ccc(N(CCCN2CCC3(CCN(C)CC3)C2)S(=O)(=O)c2ccc3c(c2)c2ccccc2n3C)c(OC)n1.Cl	
	5110 nM	> 25 µM		COc1ccc(N(CCOC(N)=O)S(=O)(=O)c2ccc3c(c2)c2ccccc2n3C)c(OC)n1	
	350 nM	0.73 µM	1.16 µM	COc1ccc(N(C(=O)CCN2CCCCC2)S(=O)(=O)c2ccc3c(c2)c2ccccc2n3C)c(OC)n1	Activity [7]: 40.1%; Activity [8]: Non-Toxic
	1970 nM	3.56 µM	4.28 µM	COc1ccc(N(CC(N)=O)S(=O)(=O)c2ccc3c(c2)c2ccccc2n3C)c(OC)n1	
< 0.001 mg/mL	95 nM		0.68 µM	COc1ccc(NS(=O)(=O)c2ccc3c(c2)c2ccccc2n3C)c(OC)n1	
	4750 nM	4.38 µM	6.63 µM	COc1ccc(N(CCN)S(=O)(=O)c2ccc3c(c2)c2ccccc2n3C)c(OC)n1	
21.5 mg/mL				COc1ccc(N(CCn2ccnc2)S(=O)(=O)c2ccc3c(c2)c2ccccc2n3C)c(OC)n1.Cl	
	1060 nM	2.69 µM	4.65 µM	COc1ccc(N(CCN2CCOCC2)S(=O)(=O)c2ccc3c(c2)c2ccccc2n3C)c(OC)n1	
0.58 mg/mL				COc1ccc(N(CCN2CCCCC2)S(=O)(=O)c2ccc3c(c2)c2ccccc2n3C)c(OC)n1.Cl	
	70 nM	0.2 µM	0.17 µM	COc1ccc(N(C(=O)CCN2CCN(C)CC2)S(=O)(=O)c2ccc3c(c2)c2ccccc2n3C)c(OC)n1	
0.0015 mg/mL				COc1ccc(NS(=O)(=O)c2ccc3c(c2)c2ccc(O)cc2n3C)c(OC)n1.Cl	
	5600 nM	11.6 µM	21 µM	COc1ccc(N(CCCN2CCN(C)CC2)S(=O)(=O)c2ccc3c(c2)c2ccccc2n3C)c(OC)n1	
	3190 nM	4.98 µM	5.7 µM	COc1ccc(N(CCN2CCCC2)S(=O)(=O)c2ccc3c(c2)c2ccccc2n3C)c(OC)n1	
20.6 mg/mL				COc1ccc(N(CCCN2CCN(C)CC2)S(=O)(=O)c2ccc3c(c2)c2ccccc2n3C)c(OC)n1.Cl	
	3890 nM	6.24 µM	15.8 µM	COc1ccc(N(CCCN2CCC(N3CCCC3)CC2)S(=O)(=O)c2ccc3c(c2)c2ccccc2n3C)c(OC)n1	
	1260 nM	2.17 µM	1.6 µM	COc1ccc(N(CCNC(=O)CN)S(=O)(=O)c2ccc3c(c2)c2ccccc2n3C)c(OC)n1	

SMILES	solubility [1]	IC50 ([2]; Homo sapiens, HepG2, 48 h)	IC50 ([3]; Homo sapiens, Bel-7402, 48 h)	IC50 ([4]; Homo sapiens, MCF7, 48 h)	other results
COc1ccc(N(CCN2CCN(C)CC2)S(=O)(=O)c2ccc3c(c2)c2ccccc2n3C)c(OC)n1.Cl	25.7 mg/mL				
COc1ccc(N(CCN(C)C)S(=O)(=O)c2ccc3c(c2)c2ccccc2n3C)c(OC)n1.Cl	29.1 mg/mL				
COc1ccc(N(CCOP(=O)(O)O)S(=O)(=O)c2ccc3c(c2)c2ccccc2n3C)c(OC)n1.Cl	1.75 mg/mL				
COc1ccc(NS(=O)(=O)c2ccc3c(c2)c2ccc(OP(=O)([O-])[O-])cc2n3C)c(OC)n1.Cl.[Na+].[Na+]	> 30 mg/mL				
COc1ccc(N(CCN2CCC(N3CCCC3)CC2)S(=O)(=O)c2ccc3c(c2)c2ccccc2n3C)c(OC)n1		3370 nM	7.81 µM	21 µM	survival at 168 h [9]: 16.7%; survival at 168 h [10]: 83.3%; survival at 168 h [11]: 100%; survival at 168 h [12]: 0%; LD50 at 168 h [13]: 70.7 mg/kg; Activity [14]: 85.64 mm3; Activity [15]: 1237.34 mm3; inhibition in vivo at 10 mg/kg [16]: 51.5%; Activity [17]: 1.72 g
COc1ccc(N(CCOP(=O)([O-])[O-])S(=O)(=O)c2ccc3c(c2)c2ccccc2n3C)c(OC)n1.Cl.[Na+].[Na+]	22.4 mg/mL				
COc1ccc(/C=C\c2cc(OC)c(OC)c(OC)c2)cc1OP(=O)(O)O [FOSBRETABULIN DISODIUM]		2 nM	0.04 µM	0.011 µM	inhibition in vivo at 50 mg/kg [18]: 45.8%
COc1ccc(N(CCN(C)C)S(=O)(=O)c2ccc3c(c2)c2ccccc2n3C)c(OC)n1		1460 nM	5.32 µM	5.33 µM	survival at 168 h [9]: 0%; survival at 168 h [19]: 66.7%; survival at 168 h [10]: 83.3%; survival at 168 h [11]: 100%; LD50 at 168 h [13]: 71.9 mg/kg; Activity [14]: 90.79 mm3; Activity [15]: 1322.82 mm3; inhibition in vivo at 10 mg/kg [16]: 52.8%; Activity [17]: 0.87 g
COc1ccc(/C=C\c2cc(OC)c(OC)c(OC)c2)cc1O [COMBRETASTATIN A4]		2 nM	0.084 µM	0.003 µM	
COc1ccc(N(CCN2CCC(N3CCCC3)CC2)S(=O)(=O)c2ccc3c(c2)c2ccccc2n3C)c(OC)n1.Cl	> 30 mg/mL				
